Source: paper PMC5814047, “Peptidic inhibitors of insulin-degrading enzyme with potential for dermatological applications discovered via phage display” (PLoS ONE, 2018)

Columns and labels:
MMP-7 = molecular target: T1, MMP-7 (Homo sapiens, UniProt P09237); test: MMP Inhibitor Profiling Kit, MMP-7; type: biochemical; settings: MMP-7
T1 construct: purchased Enzo Life Sciences, Inc
T1 sequence (P09237 95-267): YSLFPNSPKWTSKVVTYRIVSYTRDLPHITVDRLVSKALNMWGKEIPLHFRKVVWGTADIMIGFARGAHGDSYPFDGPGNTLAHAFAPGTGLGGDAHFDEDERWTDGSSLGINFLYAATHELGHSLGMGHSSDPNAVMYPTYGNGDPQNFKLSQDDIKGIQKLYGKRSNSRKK
Description: IDE activity was quantified by monitoring the degradation of Mca-[…](Dnp) (FRET1, 5 μM), fluoresceinated and biotinylated amyloid ß-protein (FAßB; 500 nM) or recombinant human insulin (50 nM) in PBS supplemented with 0.05% BSA. FRET1 degradation was measured by changes in fluorescence (λex = 340 nm, λem = 420 nm); FAßB degradation was monitored by fluorescence polarization (λex = 488 nm, λem = 525 nm), as described; and insulin degradation was quantified by ELISA. In vitro activity assays incorporated recombinant human IDE (1 nM) purified from bacteria. For quantitation of insulin degradation in primary murine skin fibroblasts, cells (1 x 10^5/well) were plated in 96-well plates and maintained in DMEM supplemented with 10% fetal bovine serum (FBS), 2mM glutamine, penicillin and streptomycin. After addition of insulin (10 nM or 100 nM), samples of conditioned medium were removed daily and quickly frozen, then insulin levels were quantified in parallel by ELISA according to manufacturer’s recommendations (Crystal Chem, Downers Grove, IL, USA). Assessment of the activity of P12-3A against a variety of matrix-metalloproteases was conducted using the Matrix Metalloproteinase (MMP) Inhibitor Profiling Kit, Fluorometric RED (Enzo Life Sciences, Inc., Farmingdale, NY, USA) according to manufacturer’s recommendations using the broad-spectrum MMP inhibitor, NNGH, as a positive control. […]

[1] = system: multiple matrix-metalloproteases (MMPs); test: Matrix Metalloproteinase (MMP) Inhibitor Profiling Kit, Fluorometric RED; type: biochemical; parameters: % activity relative to DMSO-only controls, single runs / % activity relative to DMSO-only controls, Mean: concentration or dose not given beside the values
Description: IDE activity was quantified by monitoring the degradation of Mca-[…](Dnp) (FRET1, 5 μM), fluoresceinated and biotinylated amyloid ß-protein (FAßB; 500 nM) or recombinant human insulin (50 nM) in PBS supplemented with 0.05% BSA. FRET1 degradation was measured by changes in fluorescence (λex = 340 nm, λem = 420 nm); FAßB degradation was monitored by fluorescence polarization (λex = 488 nm, λem = 525 nm), as described; and insulin degradation was quantified by ELISA. In vitro activity assays incorporated recombinant human IDE (1 nM) purified from bacteria. For quantitation of insulin degradation in primary murine skin fibroblasts, cells (1 x 10^5/well) were plated in 96-well plates and maintained in DMEM supplemented with 10% fetal bovine serum (FBS), 2mM glutamine, penicillin and streptomycin. After addition of insulin (10 nM or 100 nM), samples of conditioned medium were removed daily and quickly frozen, then insulin levels were quantified in parallel by ELISA according to manufacturer’s recommendations (Crystal Chem, Downers Grove, IL, USA). Assessment of the activity of P12-3A against a variety of matrix-metalloproteases was conducted using the Matrix Metalloproteinase (MMP) Inhibitor Profiling Kit, Fluorometric RED (Enzo Life Sciences, Inc., Farmingdale, NY, USA) according to manufacturer’s recommendations using the broad-spectrum MMP inhibitor, NNGH, as a positive control.
Supplementary file pone.0193101.s004.tif: S4 Fig Selectivity of P12-3A for IDE vis-à-vis other proteases. Activity of P12-3A (100 μM) against (A) multiple matrix-metalloproteases (MMPs) and (B) multiple peptidases of different protease classes. […] Data are mean ± SD, n = 8–16 per group. P<0.05 by 2-tailed Student’s t-test. […] See Materials and Methods for details. NEP, neprilysin; mCatD, murine cathepsin D; hCatD, human cathepsin D. (TIF) Click here for additional data file.

IDE = molecular target: T2, IDE (Homo sapiens, UniProt P14735); parameters: method as in PMID 24847884; settings: read-out: IC50 against insulin; cited from earlier work
T2 construct: made in house; host or cells: bacteria
T2 sequence (P14735 1-1019): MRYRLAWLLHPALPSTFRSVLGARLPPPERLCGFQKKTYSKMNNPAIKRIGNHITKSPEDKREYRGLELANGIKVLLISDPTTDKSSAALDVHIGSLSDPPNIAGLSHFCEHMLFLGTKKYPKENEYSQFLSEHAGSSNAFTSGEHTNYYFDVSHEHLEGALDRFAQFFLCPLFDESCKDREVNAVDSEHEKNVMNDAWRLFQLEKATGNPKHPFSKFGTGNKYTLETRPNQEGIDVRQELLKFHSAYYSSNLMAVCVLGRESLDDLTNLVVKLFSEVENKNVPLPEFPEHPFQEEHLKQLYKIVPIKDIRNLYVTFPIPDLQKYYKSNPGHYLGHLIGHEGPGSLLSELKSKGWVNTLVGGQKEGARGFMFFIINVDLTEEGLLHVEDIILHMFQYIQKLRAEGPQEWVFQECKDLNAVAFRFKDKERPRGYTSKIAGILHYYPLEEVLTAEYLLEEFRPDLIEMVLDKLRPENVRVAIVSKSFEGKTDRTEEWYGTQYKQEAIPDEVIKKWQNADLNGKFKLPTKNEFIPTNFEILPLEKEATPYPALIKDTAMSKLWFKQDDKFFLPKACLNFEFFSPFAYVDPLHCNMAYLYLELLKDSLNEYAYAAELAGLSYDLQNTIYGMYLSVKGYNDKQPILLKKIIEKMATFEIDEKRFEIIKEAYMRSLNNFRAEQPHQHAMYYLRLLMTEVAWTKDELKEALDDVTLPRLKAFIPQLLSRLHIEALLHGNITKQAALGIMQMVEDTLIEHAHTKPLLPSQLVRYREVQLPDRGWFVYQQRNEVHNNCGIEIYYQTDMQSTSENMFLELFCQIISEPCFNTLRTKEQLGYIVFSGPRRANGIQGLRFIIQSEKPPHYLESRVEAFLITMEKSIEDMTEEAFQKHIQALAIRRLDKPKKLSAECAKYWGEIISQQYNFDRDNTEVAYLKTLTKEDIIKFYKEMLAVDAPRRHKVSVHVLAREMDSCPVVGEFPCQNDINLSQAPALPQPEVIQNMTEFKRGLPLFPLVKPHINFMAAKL

SMILES	% activity relative to DMSO-only controls, Mean (MMP-7)	% activity relative to DMSO-only controls, Mean ([1]; MMP-1)	% activity relative to DMSO-only controls, Mean ([1]; MMP-2)	% activity relative to DMSO-only controls, Mean ([1]; MMP-3)	% activity relative to DMSO-only controls, Mean ([1]; MMP-8)	% activity relative to DMSO-only controls, Mean ([1]; MMP-9)	% activity relative to DMSO-only controls, Mean ([1]; MMP-12)	% activity relative to DMSO-only controls, Mean ([1]; MMP-13)	% activity relative to DMSO-only controls, Mean ([1]; MMP-14)	% activity relative to DMSO-only controls, Mean ([1]; MMP-19)	inhibition by positive control, MMPs ([1]; NNGH positive control, P< 0.01)	IC50 (IDE)
COc1ccc(S(=O)(=O)N(CC(=O)NO)CC(C)C)cc1 [NNGH, reference compound]	49.4%	1.0%	0.122%	-1.2%	5.1%	4.0%	1.9%	6.5%	24%	38%	significant inhibition	–
NCCCC[C@@H]1NC(=O)/C=C/C(=O)N[C@H](C(N)=O)CCCCNC(=O)[C@@H](Cc2ccc(C(=O)c3ccccc3)cc2)NC(=O)[C@H](CC2CCCCC2)NC1=O [6bK]	–	–	–	–	–	–	–	–	–	–	–	~100 nM
